Laboratory results taken from publication PMC8310277 (Viruses, 2021).
Where a SMILES comes first, the peptide text is derived from it. Bridges are numbered along the chain shown (N, C = ends). Where no end group is shown, it is not given here.

B1: pro-HD5 (protein, UniProt Q01523 20-94, looked up)
pro-form: ESLQERADEATTQKQSGEDNQDLAISFAGNGLSALRTSGSQARATCYCRTGRCATRESLSGVCEISGRLYRLCCR
modifications: pro-form

What was measured:
[1] = system: pseudotyped SARS-CoV-2 viruses in lung epithelial A549 cells; format: cell-based; conditions: 25 μg/mL
[2] = system: pseudotyped viruses expressing SARS-CoV-2 spike proteins (Wuhan-Hu-1)
HEK 293T-hACE2 cells = assay: Cytotoxicity assay (MTS); conditions: 1-50 μg/mL, 24 h; hACE2-expressing HEK293T cells; O.D. 490 nm; 4-6 samples
[3] = system: pseudotyped SARS-CoV-2 viruses in intestinal epithelial Caco-2 cells; conditions: 25 μg/mL

Row | Molecule | cytotoxicity (cell viability, MTS, in words) (HEK 293T-hACE2 cells) | anti-SARS-CoV-2 activity (in words) [2] | other results
1 | CC[C@H](C)[C@@H]1NC(=O)[C@H](CCC(=O)O)NC(=O)[C@@H]2CSSC[C@@H]3NC(=O)[C@H](Cc4ccc(O)cc4)NC(=O)[C@@H](NC(=O)[C@@H](NC(=O)[C@H](C)N)[C@@H](C)O)CSSC[C@@H](C(=O)N[C@@H](CCCNC(=N)N)C(=O)O)NC(=O)[C@H](CSSC[C@H](NC(=O)[C@H](CCCNC(=N)N)NC(=O)CNC(=O)[C@H]([C@@H](C)O)NC(=O)[C@H](CCCNC(=N)N)NC3=O)C(=O)N[C@@H](C)C(=O)N[C@@H]([C@@H](C)O)C(=O)N[C@@H](CCCNC(=N)N)C(=O)N[C@@H](CCC(=O)O)C(=O)N[C@@H](CO)C(=O)N[C@@H](CC(C)C)C(=O)N[C@@H](CO)C(=O)NCC(=O)N[C@@H](C(C)C)C(=O)N2)NC(=O)[C@H](CC(C)C)NC(=O)[C@H](CCCNC(=N)N)NC(=O)[C@H](Cc2ccc(O)cc2)NC(=O)[C@H](CC(C)C)NC(=O)[C@H](CCCNC(=N)N)NC(=O)CNC(=O)[C@H](CO)NC1=O [HD5] (H-ATCYCRTGRCATRESLSGVCEISGRLYRLCCR-OH; disulfide 3-31, 5-20, 10-30 (inferred); N-terminus and C-terminus assumed) | not cytotoxic | – | anti-SARS-CoV-2 activity in A549 cells (in words) [1]: exhibited anti-SARS-CoV-2 activity; post-entry effect on infection (in words) [2]: None of the tested defensins affected infection after viral entry; protection by pre-treatment of cells (in words) [2]: partially blocked viral infection; suppression of SARS-CoV-2 infection [2]: 60%; inhibition of the earlier Wuhan strain ([2]; pseudotyped viruses expressing spike proteins (Wuhan-Hu-1, 48 h, 50 μg/mL)): 96%; anti-SARS-CoV-2 activity in Caco-2 cells (in words) [3]: exhibited anti-SARS-CoV-2 activity
2 | HBD6 (FFDEKCNKLKGTCKNNCGKNEELIALCQKSLKCCRTIQPCGSIID; ends and bridges not checked; cysteine pairing not given here; UniProt Q8N104 21-65, looked up) | – | did not effectively inhibit viral infection | –
3 | HNP4 (VCSCRLVFCRRTELRVGNCLIGGVSFTYCCTRV; ends and bridges not checked; cysteine pairing not given here; UniProt P12838 64-96, looked up) | – | substantially less potent | –
4 | HD6 | not cytotoxic | only blocked SARS-CoV-2 infection at the highest concentration tested | –
5 | HBD5 (GLDFSQPFPSGEFAVCESCKLGRGKCRKECLENEKPDGNCRLNFLCCRQRI; ends and bridges not checked; cysteine pairing not given here; UniProt Q8NG35 28-78, looked up) | – | did not effectively inhibit viral infection | –
6 | B1 | – | no anti-SARS-CoV-2 activity | –
